Counter-ions that a name gives are not always drawn. Like-named read-outs stand apart in the source and are kept apart here.
Tests used:
[1] = target: T1, FGF14:Nav1.6 C-tail complex (Homo sapiens, UniProt Q92915+Q9UQD0); test: Split-luciferase complementation assay (LCA) in Clone V double stable HEK293 cells; assay type: cell-based
T1 construct: polymerase chain reaction (PCR) amplification of the FGF14 open reading frame (nt 1–855); C-terminal fragment of Nav1.6 (amino acids 1763–1976) fused with CD4ΔC-tail (amino acids 1–395); expressed in transfected cells

[2] = target: full-length P. pyralis luciferase (Photinus pyralis, UniProt P08659, K549A/L550V/N119G/N50D/S548I); assay type: cell-based
Clone V cells = conditions: human
in vitro = conditions: human
[3] = CC_NCI screening, biological replicate Set 1, normalized to on-plate 0.3% DMSO controls
[4] = CC_NCI screening, biological replicate Set 1, normalized to on-plate 0.3% DMSO controls (n=16 per plate)
[5] = CC_NCI screening, biological replicate Set 2, normalized to on-plate 0.3% DMSO controls
[6] = CC_NCI screening, biological replicate Set 2, normalized to on-plate 0.3% DMSO controls (n=16 per plate)
[7] = average of Set 1 and Set 2, normalized to 0.3% DMSO controls
[8] = CC_NCI screening, normalized to on-plate 0.3% DMSO controls

T1 sequence (Q92915 1-252 isoform Q92915-2): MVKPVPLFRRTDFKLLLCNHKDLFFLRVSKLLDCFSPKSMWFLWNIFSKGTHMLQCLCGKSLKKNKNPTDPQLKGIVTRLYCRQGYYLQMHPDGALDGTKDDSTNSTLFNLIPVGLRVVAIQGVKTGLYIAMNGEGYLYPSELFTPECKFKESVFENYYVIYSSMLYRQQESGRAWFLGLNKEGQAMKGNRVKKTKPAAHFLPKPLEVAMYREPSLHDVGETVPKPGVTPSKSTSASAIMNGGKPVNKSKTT
T1 sequence (Q9UQD0 1763-1976 limits assumed): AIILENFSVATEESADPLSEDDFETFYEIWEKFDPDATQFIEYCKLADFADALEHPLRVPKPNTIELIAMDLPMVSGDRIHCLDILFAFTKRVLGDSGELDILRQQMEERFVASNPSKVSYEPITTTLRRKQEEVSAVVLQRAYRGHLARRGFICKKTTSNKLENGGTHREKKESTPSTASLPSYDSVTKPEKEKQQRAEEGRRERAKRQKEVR
Chain of full-length P. pyralis luciferase (P08659 whole entry N50D/N119G/S548I/K549A/L550V, looked up): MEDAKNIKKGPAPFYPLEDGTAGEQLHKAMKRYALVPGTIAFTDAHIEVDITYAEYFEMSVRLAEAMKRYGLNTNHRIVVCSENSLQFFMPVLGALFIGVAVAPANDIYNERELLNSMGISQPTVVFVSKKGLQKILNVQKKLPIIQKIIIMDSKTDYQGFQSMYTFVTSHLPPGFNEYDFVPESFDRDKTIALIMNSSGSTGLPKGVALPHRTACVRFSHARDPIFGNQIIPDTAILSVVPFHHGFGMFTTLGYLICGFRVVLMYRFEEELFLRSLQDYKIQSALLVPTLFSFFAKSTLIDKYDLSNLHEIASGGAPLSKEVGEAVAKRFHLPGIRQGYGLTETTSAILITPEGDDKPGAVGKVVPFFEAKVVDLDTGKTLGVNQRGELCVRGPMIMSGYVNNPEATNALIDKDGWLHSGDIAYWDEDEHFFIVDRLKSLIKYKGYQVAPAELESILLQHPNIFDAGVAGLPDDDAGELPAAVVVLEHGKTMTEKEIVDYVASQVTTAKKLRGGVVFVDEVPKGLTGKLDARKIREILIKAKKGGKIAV

Row | SMILES | Split Luciferase Assay Z-score Set 1 [1, 3] | Split Luciferase Assay % Lum Set 1 [1, 4] | Split Luciferase Assay Z-score Set 2 [1, 5] | Split Luciferase Assay %Lum Set 2 [1, 6] | Split Luciferase Assay %Lum Avg [1, 7] | Toxicity Assay Z-score (CTB cell viability) (Clone V cells; 16 h, 30 µM) | viability at 16 h, 30 µM (in vitro) | Luciferase Assay % Lum (full-length luciferase counter-screen) [2, 8] | Luciferase Assay Z-score (full-length luciferase counter-screen) [2, 8] | further results
1 | CCCCC(=O)OCC(=O)[C@]1(O)Cc2c(O)c3c(c(O)c2[C@@H](O[C@H]2C[C@H](NC(=O)C(F)(F)F)[C@H](O)[C@H](C)O2)C1)C(=O)c1c(OC)cccc1C3=O [Valrubicin] | 2.84 | 135.13% | 1.17 | 114.43% | 124.78% | 0.60 | 104% |  |  | Luciferase Assay % Lum (full-length luciferase counter-screen) [2]: 92.36%; Luciferase Assay Z-score (full-length luciferase counter-screen) [2]: -0.98
2 | CN(Cc1cnc2nc(N)nc(N)c2n1)c1ccc(C(=O)N[C@@H](CCC(=O)O)C(=O)O)cc1 [Methotrexate] | 0.73 | 109.04% | 0.24 |  | 106.01% | 0.27 |  | 94.27% | -0.73 | viability at 16 h, 30 µM (in vitro; Clone V cells): 102%
3 | NC(=O)c1ccc(N(C(N)=O)c2c(F)cccc2F)nc1-c1ccc(F)cc1F [VX-702] | 1.35 | 116.65% | -2.63 | 67.62% | 92.13% | 0.75 | 105% | 93.91% | -0.78 | 
4 | S=P(N1CC1)(N1CC1)N1CC1 [Thiotepa] | 0.38 |  | 2.11 |  |  | 1.01 |  | 95.81% | -0.54 | Split Luciferase Assay % Lum Set 1 [1]: 104.69%; Split Luciferase Assay %Lum Avg [1]: 115.28%; Split Luciferase Assay %Lum Set 2 [1]: 125.88%; viability at 16 h, 30 µM (in vitro; Clone V cells): 107%
5 | O=c1[nH]cc(F)c(=O)[nH]1 [Fluorouracil] | 0.64 | 107.95% | 1.34 | 116.51% | 112.23% | 0.61 | 104% | 111.63% | 1.49 | 
6 | C1CN1c1nc(N2CC2)nc(N2CC2)n1 [Triethylenemelamine] |  |  |  |  |  |  |  |  |  | Split Luciferase Assay % Lum Set 1 [1]: 118.82%; Split Luciferase Assay %Lum Avg [1]: 117.67%; Split Luciferase Assay %Lum Set 2 [1]: 116.51%; Split Luciferase Assay Z-score Set 1 [1]: 1.52; Split Luciferase Assay Z-score Set 2 [1]: 1.34; Luciferase Assay % Lum (full-length luciferase counter-screen) [2]: 108.47%; Luciferase Assay Z-score (full-length luciferase counter-screen) [2]: 1.08; Toxicity Assay Z-score (CTB cell viability) (Clone V cells): 0.82; viability (in vitro): 106%
7 | CS(=O)(=O)c1ccc(C(=O)Nc2ccc(Cl)c(-c3ccccn3)c2)c(Cl)c1 [GDC-0449] | 3.10 |  | 2.02 | 124.84% | 131.61% | 0.95 | 107% | 95.45% | -0.58 | 
8 | CN(C)C[C@@H]1CCn2cc(c3ccccc32)C2=C(C(=O)NC2=O)c2cn(c3ccccc23)CCO1 [LY 333531, reference compound] | -4.72 | 41.64% | -5.94 | 27.05% | 34.34% | 0.14 | 101% | 78.46% | -2.76 | Z-score (LCA primary screening) ([1]; 30 µM, 384-well, average of primary screening (n = 2), vs on-plate 0.3% DMSO): −5.33; IMin (% Luminescence) ([1]; antagonists, Clone V cells, 384-well, normalized to DMSO): 34.34 % Luminescence; IC50 ([1]; estimated, 8-point dose response 0.25-30 µM, n = 4 per concentration, library compounds, read-out: IC50): 12.2 µM
9 | COc1cc(F)c(F)c(Nc2ccc(I)cc2F)c1NS(=O)(=O)C1(C[C@H](O)CO)CC1 [RDEA119] | -7.09 | 12.28% | -7.37 | 9.36% | 10.82% | 0.34 | 102% | 66.81% | -4.25 | 
10 | O=NN(CCCl)C(=O)NCCCl [Carmustine] | 0.55 |  | 0.24 |  |  |  |  | 102.90% | 0.37 | Split Luciferase Assay % Lum Set 1 [1]: 106.86%; Split Luciferase Assay %Lum Avg [1]: 104.93%; Split Luciferase Assay %Lum Set 2 [1]: 102.99%; Toxicity Assay Z-score (CTB cell viability) (Clone V cells): 2.39; viability (in vitro): 117%
11 | O=C(NCCCNc1nc(Nc2cccc(NC(=O)N3CCCC3)c2)ncc1I)c1cccs1 [BX 795] | -4.28 | 47.07% | -5.85 | 28.09% | 37.58% | 0.47 | 103% | 70.68% | -3.76 | 
12 | Sc1ncnc2nc[nH]c12 [Mercaptopurine] | 1.52 | 118.82% | 1.01 | 112.35% | 115.59% | 0.87 | 106% | 102.01% | 0.26 | 
13 | COc1cc(O)c2c(c1)[C@H]1O[C@@H]1C[C@H](O)[C@H](O)C(=O)/C=C\C[C@H](C)OC2=O [HYPOTHEMYCIN] | -3.75 | 53.59% | -4.16 | 48.89% | 51.24% |  |  | 72.32% | -3.54 | Toxicity Assay Z-score (CTB cell viability) (Clone V cells): 0.42; viability (in vitro): 103%
14 | CC/C(=C(\c1ccccc1)c1ccc(OCCN(C)C)cc1)c1ccccc1 [Tamoxifen citrate] |  |  |  |  |  | -7.92 | 43.4% |  |  | Split Luciferase Assay % Lum Set 1 [1]: 4.67%; Split Luciferase Assay %Lum Avg [1]: 2.86%; Split Luciferase Assay %Lum Set 2 [1]: 1.04%; Split Luciferase Assay Z-score Set 1 [1]: -7.70; Split Luciferase Assay Z-score Set 2 [1]: -8.05; Luciferase Assay % Lum (full-length luciferase counter-screen) [2]: 59.05%; Luciferase Assay Z-score (full-length luciferase counter-screen) [2]: -5.24
15 | CN(C)/N=N/c1[nH]cnc1C(N)=O [Dacarbazine] | 3.01 |  | 2.70 | 133.16% | 135.23% | 0.82 | 106% |  |  | Luciferase Assay % Lum (full-length luciferase counter-screen) [2]: 99.29%; Luciferase Assay Z-score (full-length luciferase counter-screen) [2]: -0.09
